# Reference: US5049494A, “Conversion of mannose to fructose” (Allied-Signal Inc., priority 1989, dated 1991)
# Tested on: immobilized mannose isomerase
# Conditions: 0.4 g immobilized enzyme, 40° C., 5 ml of 0.1M sugar solution, after 18 hours
# Description: Mannose isomerase activity was typically determined at 40° C. using a feedstock containing 0.1M D-mannose and 0.2M Tris buffer at pH 6.5. Mannose isomerase activity was determined in extracts primarily by measuring mannose-dependent formation of fructose according to the method described by J. H. Roe, J Biol. Chem. 107: 15-19 (1934). Assay mixtures (1 ml) containing 200 mM Tris buffer, pH 7, 100 mM D-mannose, and appropriately diluted cell extract were incubated at 40° C. After 15 min., 0.2 ml of each reaction mixture was transferred to a separate tube and 0.2 ml of ethanol containing 0.1% (wt/vol) resorcinol and 0.6 ml of 10N HCl was added. The tubes were incubated at 80° C. for 8 min, and then placed in ice water to stop the reaction. The absorbance at 484 nm was determined and compared to a standard curve relating absorbance to fructose concentration. An absorbance of 0.1 was equivalent to 150 nmoles of fructose per ml of assay mixture. The conversion of mannose to fructose (as well as any reactions with other sugars) was also determined using HPLC and known standards.
# A similar set of experiments was used to test the behavior of the enzyme in the presence of other sugar substrates. For such experiments a mixed sugar feed was prepared approximating the ratios of hemicellulose-derived sugars identified in sulfite waste liquor streams and containing (in grams per liter of 0.2M Tris buffer at pH 7) galactose (15.9), glucose (15.9), mannose (40.3), arabinose (8.0), and xylose (15.2),.
row,SMILES,loss of sugar
1,O=C(CO)[C@@H](O)[C@H](O)CO [D-xylulose],no detectable loss
2,O=C[C@H](O)[C@@H](O)[C@@H](O)CO [L-arabinose],no detectable loss
3,O=C[C@@H](O)[C@@H](O)[C@H](O)CO [D-lyxose],no detectable loss
4,O=C[C@H](O)[C@@H](O)[C@H](O)CO [D-xylose],no detectable loss

# More lines, now with the values ahead:
row,loss of sugar,SMILES
1,no detectable loss,C[C@H](O)[C@H](O)[C@@H](O)[C@@H](O)C=O [L-rhamnose]
2,no detectable loss,O=C[C@H](O)[C@H](O)[C@@H](O)[C@@H](O)CO [L-mannose]
3,no detectable loss,O=C[C@H](O)[C@@H](O)[C@@H](O)[C@H](O)CO [D-galactose]
